Experimental data: a melting point compilation (Tetko et al.; mined from patent text by program, amines drawn as free bases though some values may be those of a salt)

melting point [°C] | SMILES
136 | C(=C\c1nc2ccccc2n1-c1ccccn1)/c1ccsc1
131 to 133 | Cc1cc(C)c(S(=O)(=O)N(C)c2ccccc2CSc2nccn2-c2ccccn2)c(C)c1
173 to 174 | Cc1cc(N(N)c2ccccc2)nc(N)n1
104 | Cc1cc(=O)c(-c2ccc(Cl)c(Cl)c2)c(-c2ccccc2)o1
> 270 | O=C(O)COc1cc2c(=O)cc(C(=O)O)[nH]c2ccc1=O
67 to 70 | COc1ccccc1NS(=O)(=O)c1ccc(COC2CCCCO2)cc1 (stereo not drawn)
136 | CC(=O)OC1c2ccc(Cl)cc2CC1S(C)(=O)=O (stereo not drawn)
193 | COc1cc(C(O)(C(F)(F)F)C(F)(F)F)cc(Br)c1N(S(C)(=O)=O)S(C)(=O)=O
282 to 283 | Cc1c(-c2ccc(O)cc2O)c(=O)oc2cc(O)ccc12
106 to 108 | OC(CCn1ccnc1)c1ccccc1 (stereo not drawn)
122 to 123 | CCOC(=O)CC1CCc2[nH]c3ccccc3c2C1 (stereo not drawn)
100 to 102 | CCCCc1oc2ccccc2c1C(=O)c1ccc(OCCN(CC)CC)c(I)c1
203 to 205 | N#Cc1cc(SC(F)(F)F)[nH]c1-c1ccc(Cl)cc1
95 to 98 | CC(C(=O)c1ccco1)N1CCN(c2ccc(CO)c(Cl)c2)CC1 (stereo not drawn)
79 to 82 | CCC(=C(c1ccccc1)c1ccc(OCC2CO2)cc1)C1CCCC1 (stereo not drawn)
145 | CC(=O)[C@H]1C[C@H](C(=O)OC(C)(C)C)N(C(=O)CNC(=O)Nc2cccc(C(=O)O)c2)[C@@H]1c1ccccc1 (racemic)
167 to 168 | COc1ccc(C2=NN(CCCCOc3ccc(C4=NNC(=O)C4(C)C)c(F)c3F)C(=O)C2(C)C)c2cc(C(F)(F)F)sc12
145 to 150 | CCCS(=O)(=O)Nc1ccc2c(c1)S(=O)(=O)C=C(c1c(O)c3cc(F)ccc3n(CCC3CC3)c1=O)N2
225 | CCCC(=O)Nc1nn(COCC[Si](C)(C)C)c2cc(-c3ccc(SC)cc3)ccc12
136 to 138 | CN1C(=O)CCC(C)(C)c2cc(Nc3ncc(Cl)c(Nc4ccccc4-n4cccn4)n3)ccc21
73 to 74 | C[C@@H]1CC(C)(C)C[C@@]2(C1)[C@@H](C)CC(=O)[C@]2(C)O (relative stereo)
118 to 120 | CC(OCc1cc2cc(C(F)(F)F)ccc2n1S(=O)(=O)c1ccc2c(c1)OCCN2C)C(=O)O (stereo not drawn)
145 to 146 | CC(C)(C)CC(=O)c1ccc(OCC(=O)O)c(Cl)c1Cl

melting point [°C] | SMILES
106 to 107 | CCOC(=O)C1(C(=O)OCC)N(Cc2ccc(OC)cc2OC)C(=O)CC1(C)O (stereo not drawn)
133 to 135 | O=C1Cc2ccccc2Sc2c1ccc(Cl)c2Cl
175 | COc1ccc(CN(C)CC(O)COc2ccc(NC(=O)c3cccc4c(=O)c5cccc(OC)c5[nH]c34)cc2)cc1OC (stereo not drawn)
179 | COc1cccc(C(=O)Nc2ccc(N3CCN(Cc4cccc(C#N)c4)CC3)cc2)c1-c1ccc(C(C)C)cc1
118 to 120 | CC(N)CNC(=O)Nc1ccccc1 (stereo not drawn)
80 to 81 | C(=C1CNCCN1)c1ccccc1
135 to 136 | CSc1nc(CC2CCN(c3ccc(C(C)(C)C)cc3)CC2)nc(C(=O)NCC(=O)O)c1O
90 to 94 | Cc1ccc(CC2(O)CCN(CC3Cc4cc(O)ccc4N3)CC2)cc1 (racemic)
160 | CC(Nc1ccc(Oc2ccccc2)cc1)C(=O)O (stereo not drawn)
46 to 47 | c1cn(CCCc2ccc(OCc3coc(C4CCCCC4)n3)cc2)cn1
156 | N#Cc1c(Cl)c(Cl)n(O)c1-c1ccc(Cl)cc1
156 | CC(=O)c1sccc1S(=O)(=O)N(C)c1cccc2cc(-c3nccs3)[nH]c12
84 to 85 | COc1ccccc1N1CCN(CC2=Cc3ccccc3CC2)CC1
114 to 115 | COc1cc(CCCCCC2OC(=O)NC2=O)ccc1OCc1nc(-c2ccccc2)oc1C (stereo not drawn)
137 | COc1c(CC(C)(C)C(=O)O)n(Cc2ccc(Cl)cc2)c2ccc(O)cc12
145 to 148 | CNc1nccc(-c2cc(NCCCNc3ncnc4[nH]nc(Br)c34)c3cc(OC)ccc3c2)n1
184 | CNS(=O)(=O)c1c(C)n(C)c2cc(F)ccc2c1=O
110 | O=C(O)CNC(=O)NC(CS)Cc1ccccc1 (single isomer, unassigned; (+))
311 to 319 | Cc1nc2c3c(c(C(N)=O)cc2n1C)CCC(c1ccccc1)N3 (stereo not drawn)
142 to 145 | CCc1ccc2c(c1)C=Cc1oc(C)nc1C2c1cn(Cc2cccc(C(=O)Nc3n[nH]c(C(F)(F)F)n3)c2)c(=O)[nH]c1=S (stereo not drawn)
110 to 111 | CC1OC(O)CC(NC(=O)C(F)(F)F)C1(C)O (stereo not drawn)
165 | Cc1c(CC(=O)NC2CCN(Cc3ccc(Cl)c(Cl)c3)CC2)cnn1-c1ccccc1
230 to 232 | C=CCNC(=O)N=C(O)c1cc(C(=O)O)ccc1C(=O)O

melting point [°C] | SMILES
146 to 147 | Nc1c(Br)cc(C(=O)CBr)cc1Br
164 to 166 | COc1nc(C)nc(NC(=O)NS(=O)(=O)c2sccc2C2OCCO2)n1
117 to 120 | COc1cc(C=O)ccc1OCC(=O)NCCO[N+](=O)[O-]
86.7 to 88.6 | CC(C)Cn1nc(-c2ccc(F)cc2F)cc(COS(C)(=O)=O)c1=O
275 to 276 | CNC(=O)c1c(NC(=O)COC)c(OC)c(C(=O)NC)c(NC(=O)COC)c1OC
180 | CCCOc1ccccc1-c1cc(C)c(C#N)c(=O)[nH]1
174 to 176 | Clc1ccc(Nc2ccnc(-c3cccc(Cl)n3)n2)cc1
173 to 175 | CCC(=O)N1c2ccccc2CC1C(=O)O (stereo not drawn)
112 to 115 | Cc1cccc(O[C@@H]2CCN(S(C)(=O)=O)CC[C@H]2O)c1C (relative stereo)
74 to 76 | CC(=O)Oc1cccc(-c2c3ccccc3c(Br)c3sc4ccccc4c23)c1
130 | OCCCc1cn(C(c2ccccc2)(c2ccccc2)c2ccccc2)cn1
267 to 269 | COC(=O)c1ccc(-c2nn(-c3ccc(C(N)=O)cc3)c3ccccc23)cc1
249 to 250 | CS(=O)(=O)NCCCC1COCc2nc3c(N)nc4ccccc4c3n21 (stereo not drawn)
132 to 135 | CC(NC(=O)c1ccccc1)c1c[nH]c(-c2ccccc2)n1 (stereo not drawn)
137 to 138 | FC(F)(F)c1cc(N=NNc2cc(C(F)(F)F)cc(C(F)(F)F)c2)cc(C(F)(F)F)c1
218 to 220 | COc1ccc(-c2nc3ccc(C(C)(C)CNC(=O)C(C)C)cc3[nH]2)cc1
128 to 130 | Cc1ccc2c(c1)C1(OCCCO1)C(=O)N2
115 to 118 | O=C(c1cccc2c1NCC2)N1CCN(c2cccc(C(F)(F)F)c2)CC1
124 to 125 | COC(=O)c1nn(C2CCCCO2)cc1NC(=O)c1ccccc1 (stereo not drawn)
77 to 80 | CN(C)CCCNC(=O)c1ccc(-c2nnc(CSCCCOc3ccccc3)o2)cc1
163 to 165 | COc1cc(S(=O)(=O)c2ccncc2)ccc1N
151 to 153 | CCc1cnc2ccnn2c1NCc1ccc(-c2ccccc2C#N)cc1
154 | O=C(CBr)c1ccc(Cl)c(S(=O)(=O)Nc2ccccc2)c1

melting point [°C] | SMILES
90 to 91 | COCc1cc(NC(=O)OC)no1
210 to 211 | COc1ccc(OC)c(Cc2ccc3[nH]c(=S)[nH]c3c2)c1
178 to 180 | Cc1ccccc1S(=O)(=O)c1cc2c(cc1C)OC(C(=O)O)O2 (stereo not drawn)
282 | CCOC(=O)Cn1c2c([nH]c(=O)c1=O)CCC1=C2C=C(n2ccc(C(=O)O)c2)CC1
148 to 151 | Fc1cc(-n2cnnn2)ccc1-c1ccc2oc(C3CCNCC3)nc2c1
80 | C=Cc1cccc(N)c1
192 to 193 | CCOc1c(Cc2c[nH]c3ccccc23)[nH]c(=O)c(CC(C)C)[n+]1[O-]
161 to 162 | CCCSc1ncc(C=C(Cc2cccs2)C(=O)O)n1Cc1ccccc1Cl
84 to 86 | CC(C)[C@@H]1CC[C@@H](C)C[C@H]1OC(=O)NCCC(C)n1cnc2c(N)nc3ccccc3c21 (stereo partly drawn)
78 to 80 | CCC1(c2ccc(COc3ccc(CO)c(CO)c3)s2)OCCO1
269 to 272 | O=C(O)COc1c(-c2ccccc2)c(=O)[nH]c2cc(Cl)ccc12
130 to 132 | FC(F)(F)c1cc(-c2ccnc(Nc3ccc4c(c3)OCCO4)c2)cc(C(F)(F)F)c1
128 to 129 | CCc1cccc(C(O)CCc2ccccc2)c1NC(=O)CC1c2ccccc2Oc2ccccc21 (stereo not drawn)
245 to 247 | COC(=O)C1(NS(=O)(=O)c2ccc3c(Cl)cnc(NC(=N)N)c3c2)CCOCC1
99 to 101 | CCOC(=O)CN1C(=O)[C@@H](NC(=O)OC(C)(C)C)CCc2ccccc21
142 | Fc1ccc(-c2cn(C3CCCN4CCCCC34)nn2)cc1 (stereo not drawn)
87 to 88 | O=c1c2ccccc2ccc2ccc(SC(F)(F)F)cc12
129 to 131 | COC(=O)C1=C(C)NC(C)=C(C(=O)OCCCl)C1c1cccc([N+](=O)[O-])c1 (stereo not drawn)
121 to 122 | CCCc1nn(-c2ccc(C(F)(F)F)cn2)cc1CCCOc1ccc(CC(=O)O)cc1OC
188 to 190 | CC(C)(C)[Si](C)(C)Oc1ccc(C(=O)Oc2ccc(C(=O)O)cn2)cc1C12CC3CC(CC(C3)C1)C2
237 to 238 | O=c1cc(-c2nnn[nH]2)occ1-c1ccccc1
112 | ClCCCCOc1ccc2ccccc2c1
225 to 227 | COc1cc2nc(CO)c(CO)c(-c3ccnc(NN)c3)c2cc1OC

SMILES | melting point [°C]
CC(C)(C)NC(CCOc1cccc2c1CC(=O)N2)OC(=O)Cc1ccccc1 (stereo not drawn) | 112 to 115
CN(C)C1(c2ccccc2)CCC(=O)CC1 | 104 to 108
ClCc1nnc2n1-c1ccc(Cl)cc1C(c1ccccc1Cl)=NC2 | 195 to 198
O=C1Nc2ccccc2N2CCN(Cc3ccncc3)CC12 (stereo not drawn) | 253 to 255
CCOC(=O)C1(c2ccccc2)CCN(C(C)=O)C(=O)C1 (stereo not drawn) | 45 to 46
CC1CC(c2cc3c(F)cccc3s2)CCN1 (stereo not drawn) | 63 to 65
